# Values joined by “and” are separate entries in the source; they are usually repeats but may differ in a detail not shown here. Identical values can stand only once. Toxic doses and inconclusive results are not listed.
# System: P388 leukemia ip, CD2F1 mice, survival T/C
# Test: NCI In Vivo Anticancer Drug Screen. Data for tumor model P388 Leukemia (intraperitoneal) in CD2F1 (CDF1) mice
# Settings: endpoint: median survival time, higher = longer survival
# Outline: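 Mice carrying the transplanted tumor received test compound or vehicle. Survival was recorded in each group, and the value is the treated-group measurement divided by that of the vehicle-treated control group.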
# [1] = dose: 50.0 mg/kg/injection, schedule: Q01DX005 (ip), vehicle: saline with Tween-80
# [2] = dose: 100.0 mg/kg/injection, schedule: Q01DX005 (ip), vehicle: saline with Tween-80
# [3] = dose: 200.0 mg/kg/injection, schedule: Q01DX005 (ip), vehicle: saline with Tween-80
# [4] = dose: 25.0 mg/kg/injection, schedule: Q01DX009 (ip), vehicle: saline with Tween-80
# [5] = dose: 50.0 mg/kg/injection, schedule: Q01DX009 (ip), vehicle: saline with Tween-80
# [6] = dose: 100.0 mg/kg/injection, schedule: Q01DX009 (ip), vehicle: saline with Tween-80
# [7] = dose: 50.0 mg/kg/injection, schedule: Q01DX005 (ip), vehicle: Klucel (hydroxypropylcellulose) (HPC)
# [8] = dose: 100.0 mg/kg/injection, schedule: Q01DX005 (ip), vehicle: Klucel (hydroxypropylcellulose) (HPC)
# [9] = dose: 200.0 mg/kg/injection, schedule: Q01DX005 (ip), vehicle: Klucel (hydroxypropylcellulose) (HPC)
# [10] = dose: 50.0 mg/kg/injection, schedule: Q01DX009 (ip), vehicle: saline
# [11] = dose: 100.0 mg/kg/injection, schedule: Q01DX009 (ip), vehicle: saline
# [12] = dose: 200.0 mg/kg/injection, schedule: Q01DX009 (ip), vehicle: saline
# [13] = dose: 12.5 mg/kg/injection, schedule: Q01DX009 (ip), vehicle: saline
# [14] = dose: 25.0 mg/kg/injection, schedule: Q01DX009 (ip), vehicle: saline
compound,measurement,setting,value
c1ccc(SC2=C(Sc3ccccc3)CC2)cc1,T/C,[1],102 % of control
same,T/C,[2],111 % of control
same,T/C,[3],102 % of control
N=C1N=Nc2nc(C(C(=O)c3cccs3)c3nc4n(c3O)C(=N)N=N4)c(O)n21 (stereo unspecified),T/C,"dose: 60.0 mg/kg/injection, schedule: Q01DX005 (ip), vehicle: saline with Tween-80",97 % of control
same,T/C,"dose: 120.0 mg/kg/injection, schedule: Q01DX005 (ip), vehicle: saline with Tween-80",100 % of control
same,T/C,"dose: 240.0 mg/kg/injection, schedule: Q01DX005 (ip), vehicle: saline with Tween-80",106 % of control
O=C(Nc1ccc(NC2=NCCN2)cc1)c1cccc(C(=O)Nc2ccc(NC3=NCCN3)cc2)c1,T/C,"dose: 5.0 mg/kg/injection, schedule: Q01DX009 (ip), vehicle: saline with Tween-80",109 % of control
same,T/C,"dose: 30.0 mg/kg/injection, schedule: Q01DX009 (ip), vehicle: saline with Tween-80",100 % of control
CC(O)CNC1CCCCC1 (stereo unspecified),T/C,[4],100 % of control
same,T/C,[5],100 % of control
same,T/C,[6],100 % of control
Cn1c2ccccc2c(=O)c2cc(NC(=O)CCC(=O)Nc3ccc4c(c3)c(=O)c3ccccc3n4C)ccc21,T/C,[1],99 % of control
same,T/C,[2],97 % of control
same,T/C,[3],97 % of control
Nc1ccc(O)c(=O)cc1,T/C,[7],96 % of control
same,T/C,[8],95 % of control
same,T/C,[9],92 % of control
CCCCCn1[nH]nc(C(=O)OC)c1=O (tested in a mixture with another compound),T/C,[7],102 % of control
same,T/C,[8],95 % of control
same,T/C,[9],103 % of control
CC1NC(=O)NC(=O)C1(Cl)Cl (stereo unspecified),T/C,[10],101 % of control
same,T/C,[11],99 % of control and 109 % of control
same,T/C,[12],100 % of control and 109 % of control
Cc1nc(C)n2c(C)nnc2c1C,T/C,"dose: 25.0 mg/kg/injection, schedule: Q04DX003 (ip), vehicle: saline",101 % of control
same,T/C,"dose: 50.0 mg/kg/injection, schedule: Q04DX003 (ip), vehicle: saline",111 % of control
same,T/C,"dose: 100.0 mg/kg/injection, schedule: Q04DX003 (ip), vehicle: saline",109 % of control
Cc1c[n+]2ccc3ccccc3c2c2ccccc12,T/C,"dose: 2.2 mg/kg/injection, schedule: Q01DX009 (ip), vehicle: Klucel (hydroxypropylcellulose) (HPC)",119 % of control
same,T/C,"dose: 2.5 mg/kg/injection, schedule: Q01DX009 (ip), vehicle: Klucel (hydroxypropylcellulose) (HPC)",116 % of control
same,T/C,"dose: 3.3 mg/kg/injection, schedule: Q01DX009 (ip), vehicle: Klucel (hydroxypropylcellulose) (HPC)",120 % of control
same,T/C,"dose: 5.0 mg/kg/injection, schedule: Q01DX009 (ip), vehicle: Klucel (hydroxypropylcellulose) (HPC)",122 % of control
CC1=C(C(N)=O)C(/C=C/c2ccccc2)NC(=S)N1 (stereo unspecified),T/C,"dose: 60.0 mg/kg/injection, schedule: Q01DX005 (ip), vehicle: Klucel (hydroxypropylcellulose) (HPC)",106 % of control
same,T/C,"dose: 120.0 mg/kg/injection, schedule: Q01DX005 (ip), vehicle: Klucel (hydroxypropylcellulose) (HPC)",100 % of control
same,T/C,"dose: 240.0 mg/kg/injection, schedule: Q01DX005 (ip), vehicle: Klucel (hydroxypropylcellulose) (HPC)",100 % of control
CCN1N=Nc2ccccc2NC1=O,T/C,[1],101 % of control
same,T/C,[2],91 % of control
same,T/C,[3],96 % of control
CCc1cccc(CC)c1N1C(=O)COCC1=O,T/C,"dose: 6.25 mg/kg/injection, schedule: Q01DX009 (ip), vehicle: saline",96 % of control
same,T/C,[13],93 % of control
same,T/C,[14],92 % of control
same,T/C,[11],100 % of control
same,T/C,[12],100 % of control
Cc1cc(OC(=O)Nc2ccc(Cl)c([N+](=O)[O-])c2)c(Cl)cc1Br,T/C,"dose: 50.0 mg/kg/injection, schedule: Q01DX009 (ip), vehicle: saline + alcohol",100 % of control
same,T/C,"dose: 100.0 mg/kg/injection, schedule: Q01DX009 (ip), vehicle: saline + alcohol",105 % of control
same,T/C,"dose: 200.0 mg/kg/injection, schedule: Q01DX009 (ip), vehicle: saline + alcohol",88 % of control
CCOC(=O)c1ccc(NC(CCN2CCOCC2)=NC(C)(C)C)cc1,T/C,[5],111 % of control
same,T/C,[6],106 % of control
same,T/C,"dose: 200.0 mg/kg/injection, schedule: Q01DX009 (ip), vehicle: saline with Tween-80",105 % of control
NC(=O)c1csc(C2OC(CO)C(O)C2O)n1 (stereo unspecified),T/C,"dose: 75.0 mg/kg/injection, schedule: Q01DX005 (ip), vehicle: saline",158 % of control
same,T/C,"dose: 100.0 mg/kg/injection, schedule: Q01DX005 (ip), vehicle: saline",155 % of control and 159 % of control and 161 % of control
same,T/C,"dose: 100.0 mg/kg/injection, schedule: Q01DX005 (ip), vehicle: water",157 % of control
same,T/C,"dose: 150.0 mg/kg/injection, schedule: Q01DX005 (ip), vehicle: saline",152 % of control and 158 % of control
same,T/C,"dose: 200.0 mg/kg/injection, schedule: Q01DX005 (ip), vehicle: saline",173 % of control and 174 % of control and 178 % of control
same,T/C,"dose: 200.0 mg/kg/injection, schedule: Q01DX005 (ip), vehicle: water",171 % of control
same,T/C,"dose: 300.0 mg/kg/injection, schedule: Q01DX005 (ip), vehicle: saline",163 % of control and 177 % of control
same,T/C,"dose: 300.0 mg/kg/injection, schedule: Q01DX005 (ip), vehicle: water",158 % of control
same,T/C,"dose: 300.0 mg/kg/injection, schedule: Q01DX009 (ip), vehicle: water",193 % of control and 198 % of control
same,T/C,"dose: 400.0 mg/kg/injection, schedule: Q01DX005 (ip), vehicle: saline",181 % of control and 187 % of control and 198 % of control
same,T/C,"dose: 400.0 mg/kg/injection, schedule: Q01DX005 (ip), vehicle: water",164 % of control and 189 % of control
same,T/C,"dose: 400.0 mg/kg/injection, schedule: Q01DX009 (ip), vehicle: water",201 % of control and 224 % of control
same,T/C,"dose: 600.0 mg/kg/injection, schedule: Q01DX005 (ip), vehicle: saline",177 % of control
same,T/C,"dose: 600.0 mg/kg/injection, schedule: Q01DX005 (ip), vehicle: water",169 % of control
same,T/C,"dose: 600.0 mg/kg/injection, schedule: Q01DX009 (ip), vehicle: water",234 % of control and 237 % of control
same,T/C,"dose: 700.0 mg/kg/injection, schedule: Q01DX009 (ip), vehicle: water",245 % of control and 86 % of control
same,T/C,"dose: 750.0 mg/kg/injection, schedule: Q01DX009 (ip), vehicle: water",117 % of control
same,T/C,"dose: 800.0 mg/kg/injection, schedule: Q01DX005 (ip), vehicle: saline",217 % of control
same,T/C,"dose: 800.0 mg/kg/injection, schedule: Q01DX009 (ip), vehicle: water",99 % of control and 245 % of control
Nc1cc2nc3ccccc3nc2cc1N,T/C,"dose: 25.0 mg/kg/injection, schedule: Q01DX005 (ip), vehicle: saline with Tween-80",91 % of control
same,T/C,[1],90 % of control
O=C(Nc1ccc(Cl)cc1)N1c2ccccc2SC1c1ccco1 (stereo unspecified),T/C,[1],89 % of control
same,T/C,[2],88 % of control
same,T/C,[3],87 % of control
Cn1c(=O)c2c(c3ccccc31)OC(C)(C)C=C2,T/C,[1],100 % of control
same,T/C,[2],100 % of control
same,T/C,[3],105 % of control
CCC(c1ccc(OC)cc1)c1cc2c(cc1OC)OCO2 (stereo unspecified),T/C,[7],97 % of control
same,T/C,[8],106 % of control
same,T/C,[9],113 % of control
O=C(Nc1ccccn1)c1ccccc1S(=O)(=O)O,T/C,[1],102 % of control
same,T/C,[2],104 % of control
same,T/C,[3],99 % of control
CN=C1NS(=O)(=O)c2ccccc21,T/C,[1],93 % of control
same,T/C,[2],108 % of control
same,T/C,[3],97 % of control
CC1=NN(c2ccc(S(=O)(=O)O)cc2)C(=O)C1N=Nc1ccc(-c2ccc(N=Nc3ccc(O)c(C(=O)O)c3)c(C)c2)cc1C (stereo unspecified),T/C,"dose: 6.25 mg/kg/injection, schedule: Q01DX009 (ip), vehicle: saline with Tween-80",100 % of control and 91 % of control
same,T/C,"dose: 12.5 mg/kg/injection, schedule: Q01DX009 (ip), vehicle: saline with Tween-80",99 % of control and 106 % of control and 113 % of control
same,T/C,[4],100 % of control and 120 % of control and 91 % of control
Cc1ccc(S(=O)(=O)NC(=O)NC(=S)c2cccc3ccccc23)cc1,T/C,"dose: 100.0 mg/kg/injection, schedule: Q01DX001 (ip), vehicle: saline with Tween-80",101 % of control
same,T/C,"dose: 200.0 mg/kg/injection, schedule: Q01DX001 (ip), vehicle: saline with Tween-80",99 % of control
same,T/C,"dose: 400.0 mg/kg/injection, schedule: Q01DX001 (ip), vehicle: saline with Tween-80",102 % of control
Nc1ccc(N=C2C=CC(=O)C=C2)c(N)c1,T/C,[13],102 % of control and 90 % of control
same,T/C,[14],103 % of control and 112 % of control
same,T/C,[10],105 % of control
same,T/C,[11],112 % of control
CN1CCC/C1=C\C(=O)c1ccc([N+](=O)[O-])cc1,T/C,"dose: 100.0 mg/kg/injection, schedule: Q04DX003 (ip), vehicle: Klucel (hydroxypropylcellulose) (HPC)",107 % of control
same,T/C,"dose: 200.0 mg/kg/injection, schedule: Q04DX003 (ip), vehicle: Klucel (hydroxypropylcellulose) (HPC)",107 % of control
same,T/C,"dose: 400.0 mg/kg/injection, schedule: Q04DX003 (ip), vehicle: Klucel (hydroxypropylcellulose) (HPC)",93 % of control

# — PubChem BioAssay AID330 (DTP/NCI, 2004)
